Data reported in ChEMBL document CHEMBL3045096, “Pharmacophore modeling and 3D-QSAR (CoMSIA) studies for structural requirements of some triazine derivatives as G-quadruplex binders for telomerase inhibition” (Med Chem Res, 2013).
pIC50: −log10 of the molar value.

molecular target: Telomerase reverse transcriptase (Homo sapiens, UniProt O14746); assay: Inhibition of telomerase (unknown origin)
Sequence (O14746 whole entry): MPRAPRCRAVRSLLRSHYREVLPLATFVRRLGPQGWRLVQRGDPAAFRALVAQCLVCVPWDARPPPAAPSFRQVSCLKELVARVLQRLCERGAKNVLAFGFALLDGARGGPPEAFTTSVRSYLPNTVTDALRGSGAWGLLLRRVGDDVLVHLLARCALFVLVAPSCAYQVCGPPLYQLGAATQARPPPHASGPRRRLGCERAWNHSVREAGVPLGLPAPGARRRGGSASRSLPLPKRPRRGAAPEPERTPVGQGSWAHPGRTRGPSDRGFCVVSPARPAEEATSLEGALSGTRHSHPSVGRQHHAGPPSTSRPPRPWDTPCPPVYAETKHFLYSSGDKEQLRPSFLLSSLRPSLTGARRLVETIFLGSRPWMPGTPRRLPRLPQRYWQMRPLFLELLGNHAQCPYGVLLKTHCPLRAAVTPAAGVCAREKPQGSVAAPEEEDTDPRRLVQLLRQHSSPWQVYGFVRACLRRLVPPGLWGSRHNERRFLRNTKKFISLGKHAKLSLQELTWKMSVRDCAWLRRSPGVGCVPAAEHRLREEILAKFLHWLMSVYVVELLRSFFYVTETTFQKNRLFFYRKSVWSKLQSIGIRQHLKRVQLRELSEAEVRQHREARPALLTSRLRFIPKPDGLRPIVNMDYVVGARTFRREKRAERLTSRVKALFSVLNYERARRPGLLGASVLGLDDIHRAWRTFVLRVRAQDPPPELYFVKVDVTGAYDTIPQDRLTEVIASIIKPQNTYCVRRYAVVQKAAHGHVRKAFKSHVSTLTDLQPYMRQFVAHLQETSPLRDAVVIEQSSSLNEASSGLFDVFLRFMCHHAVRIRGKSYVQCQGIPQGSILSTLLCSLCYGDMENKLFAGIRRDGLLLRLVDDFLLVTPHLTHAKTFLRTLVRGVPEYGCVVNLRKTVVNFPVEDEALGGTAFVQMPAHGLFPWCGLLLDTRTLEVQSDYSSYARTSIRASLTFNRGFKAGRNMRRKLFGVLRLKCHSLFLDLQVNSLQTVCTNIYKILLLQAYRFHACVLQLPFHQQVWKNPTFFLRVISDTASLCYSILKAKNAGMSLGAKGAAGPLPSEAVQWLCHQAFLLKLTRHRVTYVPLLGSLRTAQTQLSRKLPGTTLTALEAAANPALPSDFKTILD

Row | pIC50 | SMILES
1 | 6.89 | C[n+]1cccc2cc(Nc3nc(N)nc(Nc4ccc5c(ccc[n+]5C)c4)n3)ccc21
2 | 5.55 | CCn1c2ccccc2c2cc(Nc3nc(Nc4ccc5nc(C)cc(N)c5c4)nc(SC)n3)ccc21
3 | 6.00 | CSc1nc(Nc2ccc3nc(C)ccc3c2)nc(Nc2ccc3nc(C)cc(N)c3c2)n1
4 | 6.31 | Cc1cc(N)c2cc(Nc3ccnc(Nc4ccc5nc(C)cc(N)c5c4)n3)ccc2n1
5 | 7.25 | CC[n+]1c(C)cc(N)c2cc(Nc3nc(N)nc(Nc4ccc5c(c4)c(N)cc(C)[n+]5CC)n3)ccc21
6 | 6.66 | Cc1cc(N)c2cc(Nc3nc(Nc4ccc5c(c4)c(N)cc(C)[n+]5C)nc(N(C)C)n3)ccc2[n+]1C
7 | 6.29 | CNc1nc(Nc2ccc3nc(C)cc(N)c3c2)nc(Nc2ccc3nc(C)cc(N)c3c2)n1
8 | 6.05 | C[n+]1c2ccccc2c(N)c2cc(Nc3nc(N)nc(Nc4ccc5c(c4)c(N)c4ccccc4[n+]5C)n3)ccc21
9 | 7.29 | Cc1cc(N)c2cc(Nc3nc(N)nc(Nc4ccc5nc(C)cc(N)c5c4)n3)ccc2n1
10 | 7.31 | CSc1nc(Nc2ccc3nc(C)cc(N)c3c2)nc(Nc2ccc3nc(C)cc(N)c3c2)n1
11 | 6.02 | CSc1nc(Nc2ccc3c(c2)c(=N)cc(C)n3C)nc(Nc2ccc3c(c2)c(=N)cc(C)n3C)n1
12 | 5.41 | COc1cc(C)nc2ccc(Nc3nc(Nc4ccc5nc(C)cc(OC)c5c4)nc(SC)n3)cc12
13 | 5.64 | COc1cc(C)nc2ccc(Nc3nc(Nc4ccc5nc(C)cc(N)c5c4)nc(SC)n3)cc12
14 | 6.47 | CSc1nc(Nc2ccc3nc(C)cc(N)c3c2)nc(Nc2ccc3nc(C)cc(N(C)C)c3c2)n1
15 | 5.47 | CSc1nc(Nc2ccc3nc(C)cc(C)c3c2)nc(Nc2ccc3nc(C)cc(N)c3c2)n1
16 | 6.60 | Cc1cc(N)c2cc(Nc3nc(N)nc(Nc4ccc5c(c4)c(N)cc(C)[n+]5C)n3)ccc2[n+]1C

The next lines start with the compound.

Row | SMILES | pIC50
17 | CSc1nc(Nc2ccc3nc(C)cc(N(C)C)c3c2)nc(Nc2ccc3nc(C)cc(N(C)C)c3c2)n1 | 7.39
18 | CSc1nc(Nc2cccc(C(=N)N)c2)nc(Nc2ccc3nc(C)cc(N)c3c2)n1 | 5.48
19 | CSc1nc(Nc2ccc(C#N)cc2)nc(Nc2ccc3nc(C)cc(N)c3c2)n1 | 5.47
20 | CSc1nc(Nc2ccc3nc(C)cc(C)c3c2)nc(Nc2ccnc3ccccc23)n1 | 5.47
21 | COc1ccc2nccc(Nc3nc(Nc4ccc5nc(C)cc(C)c5c4)nc(SC)n3)c2c1 | 5.48
22 | CSc1nc(Nc2ccc3nc[nH]c3c2)nc(Nc2ccc3nc(C)cc(C)c3c2)n1 | 5.48
23 | CCc1cc(Nc2nc(Nc3ccc4nc(C)cc(N)c4c3)nc(SC)n2)ccn1 | 5.66
24 | CCN(CC)c1nc(Nc2ccc3ncccc3c2)nc(Nc2ccc3nc(C)cc(N)c3c2)n1 | 5.60
25 | CCN(CC)c1nc(Nc2ccncc2)nc(Nc2ccc3nc(C)cc(C)c3c2)n1 | 5.47
26 | Cc1cc(N)c2cc(NC(=N)NC(=N)Nc3ccc4nc(C)cc(N)c4c3)ccc2n1 | 5.70
27 | CNc1nc(Nc2ccc3nc(C)cc(NC)c3c2)nc(Nc2ccc3nc(C)cc(NC)c3c2)n1 | 6.52
28 | N=C(N)c1ccc(Nc2nc(N)nc(Nc3ccc(C(=N)N)cc3)n2)cc1 | 6.13
29 | Cc1cc(N(C)C)c2cc(Nc3nc(Cl)nc(Nc4ccc5nc(C)cc(N(C)C)c5c4)n3)ccc2n1 | 5.52
30 | CSc1nc(Nc2ccc3nc(C)cc(N)c3c2)nc(N(C)c2ccc3ncccc3c2)n1 | 5.46
31 | CSc1nc(Nc2ccc3ncccc3c2)nc(Nc2ccc3nc(C)cc(N)c3c2)n1 | 5.59
